According to patent US20230339968A1, “KRAS Gl2C INHIBITORS” (Eli Lilly and Company, priority 2019, published 2023):
Read-outs that look alike come from different tables or passages of the source.

How the values were obtained:
H2030 (lung) = experiment: CellTiterGlo Cell Proliferation Assay (2D), H2030; format: cell-based; settings: Homo sapiens, NCI-H2030, 96 hours
Protocol: (§1) The purpose of this assay is to evaluate the growth of KRas G12C mutant tumor lines following treatment with a test compound. A panel of tumor cell lines harboring KRas G12C or other KRas mutations are collected (Table 25). All cell lines are from ATCC or other sources indicated.
(§2) Typically cells are cultured in RPMI1640 or Dulbecco's modified Eagle's medium (DMEM, GIBCO) supplemented with 10% FBS (GIBCO, Invitrogen). […] The cells are treated with compound for 96 hours, and then are analyzed for viability using the CellTiterGlo® Luminescent Cell Viability Assay® (Promega #G7572 for 2D) according to manufacturer's instructions and an EnVision™ plate reader. Nonlinear regression and sigmoidal dose-response curves are used to calculate the half maximal inhibitory concentration (IC50) with GraphPad Prism 4® software.

Calu-1 (lung) = experiment: CellTiterGlo Cell Proliferation Assay (2D), Calu-1; format: cell-based; settings: Homo sapiens, 96 hours
Protocol: as §1, §2

LU99 (lung) = experiment: CellTiterGlo Cell Proliferation Assay (2D), LU99; format: cell-based; settings: Homo sapiens, Lu-99, 96 hours
Protocol: as §1, §2

LXFA-983L (lung) = experiment: CellTiterGlo Cell Proliferation Assay (2D), LXFA-983L; format: cell-based; settings: 96 hours
Protocol: as §1, §2

H1373 (lung) = experiment: CellTiterGlo Cell Proliferation Assay (2D), H1373; format: cell-based; settings: Homo sapiens, NCI-H1373, 96 hours
Protocol: as §1, §2

SW756 (cervix) = experiment: CellTiterGlo Cell Proliferation Assay (2D), SW756; format: cell-based; settings: Homo sapiens, 96 hours
Protocol: as §1, §2

A549 (lung) = experiment: CellTiterGlo Cell Proliferation Assay (2D), A549 (KRas G12S); format: cell-based; settings: Homo sapiens; for inhibition at 10 µM: read-out: % inh. @ 10 μM
Protocol: as §1, §2

H2122 (lung) = experiment: CellTiterGlo Cell Proliferation Assay (2D), H2122; format: cell-based; settings: Homo sapiens, NCI-H2122, 96 hours
Protocol: as §1, §2

HCC44 (lung) = experiment: CellTiterGlo Cell Proliferation Assay (2D), HCC44; format: cell-based; settings: Homo sapiens, 96 hours
Protocol: as §1, §2

SW1463 (colon) = experiment: CellTiterGlo Cell Proliferation Assay (2D), SW1463; format: cell-based; settings: Homo sapiens, 96 hours
Protocol: as §1, §2

H358 (lung) = experiment: CellTiterGlo Cell Proliferation Assay (2D), H358; format: cell-based; settings: Homo sapiens, NCI-H358, 96 hours
Protocol: as §1, §2

SW1573 (lung) = experiment: CellTiterGlo Cell Proliferation Assay (2D), SW1573; format: cell-based; settings: Homo sapiens, 96 hours
Protocol: as §1, §2

MiaPaca-2 (pancr) = experiment: CellTiterGlo Cell Proliferation Assay (2D), MiaPaca-2; format: cell-based; settings: Homo sapiens, MIA PaCa-2, 96 hours
Protocol: as §1, §2

H358 xenograft = experiment: Anti-tumor growth activity in lung cancer H358 xenograft mouse model; format: in vivo
Protocol: The purpose of this assay is to determine anti-tumor activities of test compounds (Example 34, 35, and 36) in a lung cancer H358 mouse xenograft model. H358 lung tumor cells (10×10^6) are implanted by subcutaneous injection in hind leg of nude female mice (Taconic Biosciences). A total of 4 mice in each group are used for the efficacy study. Treatment is initiated with oral administration (gavage) of the test compound or vehicle (20% Captisol®, 25 mM phosphate, pH 2.0 in 0.2 mL volume) once or twice daily for 28 days when the tumor size reaches approximately 300 mg. Tumor growth and body weight are monitored over time to evaluate efficacy and signs of toxicity. […] No significant animal body weight loss was observed through the whole study for these compounds.

[1] = A549 (lung, KRas G12S), 2D, 96 hours
[2] = A549 (lung, KRas G12S), 2D, 96 hours, 10 μM

Compound	IC50 (H2030 (lung))	inhibition at 10 µM (H2030 (lung))	IC50 (Calu-1 (lung))	inhibition at 10 µM (Calu-1 (lung))	IC50 (LU99 (lung))	inhibition at 10 µM (LU99 (lung))	IC50 (LXFA-983L (lung))	inhibition at 10 µM (LXFA-983L (lung))	IC50 (H1373 (lung))	inhibition at 10 µM (H1373 (lung))	IC50 (SW756 (cervix))	inhibition at 10 µM (SW756 (cervix))	IC50 (A549 (lung); [1])	IC50 (H2122 (lung))	inhibition at 10 µM (H2122 (lung))	IC50 (HCC44 (lung))	inhibition at 10 µM (HCC44 (lung))	IC50 (SW1463 (colon))	inhibition at 10 µM (SW1463 (colon))	IC50 (H358 (lung))	other results
C=CC(=O)N1CCN2C(=O)c3cc(Cl)c(-c4ccc(F)c5sc(N)nc45)c(Cl)c3OCC[C@H]2C1 (atropisomer, axis not shown) [Example 1, (13aS)-9-(2-Amino-7-fluoro-1,3-benzothiazol-4-yl)-8,10-dichloro-2-prop-2-enoyl-1,3,4,12,13,13a-hexahydropyrazino[2,1-d][1,5]benzoxazocin-6-one]	> 10 µM	32.9%	> 10 µM	45.4%	0.303 µM	89.9%	3.61 µM	78.6%	1.81 µM	68.8%	1.63 µM	51.9%	> 10 µM	1.17 µM	80.4%	> 10 µM	46.4%	0.006 µM	95.3%	0.004 µM	inhibition at 10 µM (A549 (lung); [2]): 19.1%; inhibition at 10 µM (H358 (lung)): 94.5%; IC50 (SW1573 (lung)): > 10 µM; inhibition at 10 µM (SW1573 (lung)): 35%; IC50 (MiaPaca-2 (pancr)): 0.018 µM; inhibition at 10 µM (MiaPaca-2 (pancr)): 77.2%
C=CC(=O)N1CCN2C(=O)c3cc(F)c(-c4cccc5sc(N)c(C#N)c45)c(Cl)c3OCC[C@H]2C1 [Example 34, 4-[(13aS)-10-Chloro-8-fluoro-6-oxo-2-prop-2-enoyl-1,3,4,12,13,13a-hexahydropyrazino[2,1-d][1,5]benzoxazocin-9-yl]-2-amino-benzothiophene-3-carbonitrile]	> 10 µM	41.1%	1.14 µM	50.6%	0.201 µM	91.9%	> 10 µM	68.8%	6.74 µM	67.7%	1.08 µM	56.9%	> 10 µM	0.66 µM	78.1%	> 10 µM	41%	0.004 µM	90.1%	0.002 µM	% Regression (Day 12) (H358 xenograft; 100 mg/kg PO, QD): −30.96%; % Regression (Day 26) (H358 xenograft; 100 mg/kg PO, QD): −6.28%; inhibition at 10 µM (A549 (lung); [2]): 18.8%; inhibition at 10 µM (H358 (lung)): 95.6%; IC50 (SW1573 (lung)): 7.82 µM; inhibition at 10 µM (SW1573 (lung)): 60.8%; IC50 (MiaPaca-2 (pancr)): 0.01 µM; inhibition at 10 µM (MiaPaca-2 (pancr)): 82.9%
C=CC(=O)N1CCN2C(=O)c3cc(F)c(-c4ccc(F)c5sc(N)c(C#N)c45)c(Cl)c3OCC[C@H]2C1 [Example 35, 4-[(13aS)-10-Chloro-8-fluoro-6-oxo-2-prop-2-enoyl-1,3,4,12,13,13a-hexahydropyrazino[2,1-d][1,5]benzoxazocin-9-yl]-2-amino-7-fluoro-benzothiophene-3-carbonitrile]	> 10 µM	40.3%	0.48 µM	56%	0.173 µM	96.6%	> 10 µM	83.1%	3.54 µM	86.3%	1.55 µM	56.7%	> 10 µM	0.9 µM	79.7%	2.23 µM	64.3%	0.005 µM	94.3%	0.002 µM	% Regression (Day 12) (H358 xenograft; 30 mg/kg PO, BID): −72.14%; % Regression (Day 26) (H358 xenograft; 30 mg/kg PO, BID): −67.68%; inhibition at 10 µM (A549 (lung); A549, 96 h): 31.6%; inhibition at 10 µM (H358 (lung)): 96.4%; IC50 (SW1573 (lung)): > 10 µM; inhibition at 10 µM (SW1573 (lung)): 44.7%; IC50 (MiaPaca-2 (pancr)): 0.011 µM; inhibition at 10 µM (MiaPaca-2 (pancr)): 85.8%
C=CC(=O)N1CCN2C(=O)c3cc(F)c(-c4ccc(F)c5sc(N)c(C#N)c45)c(Cl)c3OC[C@H]2C1 [Example 36, 4-[(4aR)-7-Chloro-9-fluoro-11-oxo-3-prop-2-enoyl-2,4,4a,5-tetrahydro-1H-pyrazino[2,1-c][1,4]benzoxazepine-8-yl]-2-amino-7-fluoro-benzothiophene-3-carbonitrile]	> 10 µM	55.8%	2.93 µM	77.4%	0.349 µM	99.1%	> 10 µM	88%	5.49 µM	82.6%	2.52 µM	58.1%	9.5 µM	1.36 µM	92.8%	2.84 µM	80.6%	0.014 µM	82.7%	0.008 µM	% Regression (Day 12) (H358 xenograft; 30 mg/kg PO, BID): −68.96%; inhibition at 10 µM (A549 (lung); [2]): 62.1%; inhibition at 10 µM (H358 (lung)): 89.1%; IC50 (SW1573 (lung)): 9.35 µM; inhibition at 10 µM (SW1573 (lung)): 54.3%; IC50 (MiaPaca-2 (pancr)): 0.081 µM; inhibition at 10 µM (MiaPaca-2 (pancr)): 79.6%
